Data as given in US9133203B2, “Pyrroloquinazoline compounds” (OREGON HEALTH & SCIENCE UNIVERSITY, priority 2013, dated 2015).

Columns and labels:
MDA-MB-231 = test: MTT antiproliferation assay in MDA-MB-231 cells; assay type: cell-based; settings: Homo sapiens, concentration that limits growth by 50%, 72 hour incubation, mean ± SD, at least two experiments in duplicate
Description: (§1) The newly synthesized selectively mono-N-acylated compounds of series 4 and series 7 were evaluated as potential anticancer agents because compound 1 had been previously shown to display anticancer activity by inhibiting DHFR (Kuyper L F et al, J Med Chem 39, 892-903 (1996); incorporated by reference herein). Compounds of series 2 were not evaluated due to their poor solubility in DMSO. Two triple negative breast cancer (TN BC) cell lines (MDA-MB-231 and MDAMB-468) were selected to evaluate potential anticancer activity of the compounds of series 4 and series 7 by an MTT assay (Li B X et al, Bioorg Med Chem 20, 6811-6820 (2012); incorporated by reference herein.) TNBC represents a unique subtype of breast cancer clinically characterized by the lack of expression of estrogen receptor (ER), progesterone receptor (PR) and human epidermal growth factor receptor 2 (HER2). Subjects with triple negative breast cancer often have a poor prognosis (Kang S P et al, Curr Opin Obstet Gynecol 20, 40-46 (2008) and The Cancer Genome Atlas Network Nature, 490, 61-70 (2012); both of which are incorporated by reference herein). Current treatment options for TNBC are limited and novel agents are needed (Shastry M and Yardley D A, Curr Opin Obstet Gynecol 25, 40-48 (2013); incorporated by reference herein).
(§2) GI50 values represent the concentration that limits the growth of the cancer cells by 50% during a 72 hour incubation period. These are presented as mean±standard deviation of the mean of at least two independent experiments performed in duplicate.
(§3) TMTT assays for MDA-MB-231, MDA-MB-468 and HMEC were performed as described in Li et al, 2012 supra.

MDA-MB-468 = test: MTT antiproliferation assay in MDA-MB-468 cells; assay type: cell-based; settings: Homo sapiens, concentration that limits growth by 50%, 72 hour incubation, mean ± SD, at least two experiments in duplicate
Description: as §1, §2, §3

LMNA/C = test: Chemoproteomic pulldown with probe 10 and Western blot, LMNA/C; assay type: binding, human; settings: MDA-MB-468 cells, photocrosslinking, streptavidin pulldown, Western blot
Description: (§4) FIG. 5A is a schematic diagram of chemoproteomics experiments described in Example 38 below. MDA-MB-468 cells were treated with probe 10 with or without compound 7f. Then the cells were irradiated by UV followed by cell lysis. The lysates were clicked with a biotin-N3. The biotinylated proteins were pulled down with streptavidin beads. The bound proteins were trypsin-digested for LC-MS/MS analysis or eluted for Western analysis.
(§5) FIG. 5B is an image of a Western blot showing that 7f binds LMNA and LMNB1. The proteins from streptavidin-pulldown prepared as shown in FIG. 5A were subjected to Western blot with antibodies specific for the proteins indicated by the arrows to the right of the figure.
(§6) Unbiased chemical proteomics experiments involving photocrosslinking MDA-MB-468 cells treated with probe compound 10, clicking with a biotin-azide (biotin-N3), streptavidin pulldown and mass spectroscopic analyses identified nuclear lamins as the molecular targets of 7f. Nuclear lamins are type V intermediate filament proteins. In humans, there are three lamin genes (LMNA, LMNB1 and LMNB2) encoding four major proteins: LMNA, LMNC, LMNB1 and LMNB2. To further confirm that lamins are the targets, the biotinylated proteins prepared as shown in FIG. 5A were pulled down and analyzed by Western blot with individual antibodies (FIG. 5B).

human DHFR = biological target: T1, human DHFR (Homo sapiens, UniProt P00374); test: In vitro human DHFR inhibition; assay type: biochemical; settings: DHFR assay kit, NADPH 60 μM, DHF 50 μM
T1 construct: purchased Sigma
T1 sequence (P00374 1-187): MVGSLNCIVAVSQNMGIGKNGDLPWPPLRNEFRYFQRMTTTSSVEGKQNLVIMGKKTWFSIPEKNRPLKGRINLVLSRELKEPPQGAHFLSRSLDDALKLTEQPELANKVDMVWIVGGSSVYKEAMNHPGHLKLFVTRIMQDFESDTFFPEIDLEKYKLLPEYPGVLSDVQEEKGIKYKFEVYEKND
Description: The human DHFR assay was done with DHFR assay kit (Sigma) following the manufacturer's instructions with minor modifications. Different concentrations of a test compound were incubated with human DHFR (0.1875 mU) and NADPH (60 μM) in the 1× assay buffer for 2 min at room temperature. Then DHF (50 μM) was added to initiate the reduction reaction, which was immediately monitored by absorbance at 340 nm every 12 s for 3 min. The final reaction volume was 100 μL and the final DMSO concentration was 1%. The reaction velocities were calculated as the slopes from the absorbance-time curves.

[1] = system: normal human mammary epithelial cells (HMEC); test: MTT viability assay in normal human mammary epithelial cells; assay type: cell-based
Description: FIG. 2 is a plot showing the effect of compound 7f on normal human mammary epithelial cells (HMEC.) HMEC were treated with the indicated concentrations of doxorubicin or 7f for 24 or 72 hours as indicated. Cells treated for 24 hours were further incubated in drug free media for 48 hours. The number of viable cells was determined by an MTT assay.
as §3

[2] = system: CREB-mediated gene transcription; test: CREB reporter assay (CRE-RLuc) in HEK 293T cells; assay type: cell-based, human; settings: forskolin 10 μM
Description: FIG. 4 is a plot showing the activity of compound 7f on CREB mediated gene transcription in HEK 293T cells. HEK 293T cells were transfected with a CREB renilla luciferase reporter (CRE-RLuc). Then the cells were treated with increasing concentrations of 7f for 30 min before the addition of forskolin at a final concentration of 10 μM. The cells were further incubated for 5 hours before cell lysis and renilla luciferase activity measurement. The renilla luciferase activity was normalized to the protein concentration of the cell lysates and was expressed as relative luciferase unit (RLU)/μg of proteins.
Inhibition of CREB mediated transcription in HEK 293T cells by a CREB reporter assay was performed as described in Li and Xiao, 2009 supra.

LMNB1 = biological target: T2, LMNB1 (Homo sapiens, UniProt P20700); test: Chemoproteomic pulldown with probe 10 and Western blot, LMNB1; assay type: binding; settings: MDA-MB-468 cells, photocrosslinking, streptavidin pulldown, Western blot
T2 construct: endogenous in cells; host or cells: MDA-MB-468
T2 sequence (P20700 1-586): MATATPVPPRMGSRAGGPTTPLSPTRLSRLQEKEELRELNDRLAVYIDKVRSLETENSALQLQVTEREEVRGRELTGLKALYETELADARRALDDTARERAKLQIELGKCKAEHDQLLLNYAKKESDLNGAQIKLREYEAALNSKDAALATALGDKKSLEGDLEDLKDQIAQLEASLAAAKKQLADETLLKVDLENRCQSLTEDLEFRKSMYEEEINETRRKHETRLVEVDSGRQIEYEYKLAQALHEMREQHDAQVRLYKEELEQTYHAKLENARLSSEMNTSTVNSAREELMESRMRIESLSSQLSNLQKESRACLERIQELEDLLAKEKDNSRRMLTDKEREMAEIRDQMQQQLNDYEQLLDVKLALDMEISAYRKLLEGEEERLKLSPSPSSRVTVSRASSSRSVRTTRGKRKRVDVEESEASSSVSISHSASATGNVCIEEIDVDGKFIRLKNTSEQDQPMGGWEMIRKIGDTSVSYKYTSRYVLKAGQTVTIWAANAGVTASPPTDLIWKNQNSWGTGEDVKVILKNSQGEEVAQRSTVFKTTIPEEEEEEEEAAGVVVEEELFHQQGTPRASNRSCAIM
Description: as §4, §5, §6

[3] = Stability in HPLC mobile phase containing TFA; assay type: physicochemical; settings: HPLC mobile phase water/acetonitrile with 0.1% TFA
Description: The solvents used for each reaction were purified from the Glass Contout solvent purification system. Melting points were determined in capillary tubes using MeI-Temp and are uncorrected. NMR spectra were recorded at 400 MHz (^1H NMR) and 100 MHz (^13C NMR). Chemical shifts (δ) are reported in ppm relative to the residual CHCl3 (1H, 7.26 ppm, 13C, 77.0 ppm) or DMSO (1H, 2.50 ppm, 13C, 39.5 ppm). The following abbreviations were used to describe the splitting pattern of individual peaks if applicable: s=singlet, d=doublet, t=triplet, q=quartet, m=multiplet. The coupling constants (J) were reported in Hertz (Hz). Silica gel flash chromatography was performed using 230-400 mesh silica gel (EMD). The mass spectra were obtained from an LTQ Orbitrap Discovery mass spectrometer (Thermo Scientific, West Palm Beach, Fla.) with electrospray operated either in positive or negative mode. All final compounds were confirmed to be of >95% purity based on HPLC (Waters) analysis using an XBridge C18 column (4.6×150 mm) and detected at 254 nm (due to the poor solubility, compound 2a-2d were not evaluated by HPLC). The mobile phases for HPLC are water and acetonitrile, both of which contain 0.1% TFA (for compounds 2e, 4e, and 7e which contain a TBS group, 0.01% TFA was used due to instability of these compounds in 0.1% TFA).

Solubility observations = assay type: physicochemical; settings: high-quality 13C NMR spectra could not be obtained

Compound: CCCC(=O)Nc1nc(N)nc2ccc3[nH]ccc3c12 [Compound 4c]
- GI50 (MDA-MB-231): 26.9 ± 12.9 µM
- GI50 (MDA-MB-468): 26.3 ± 7.4 µM
- melting point: 224 to 226 °C

Compound: Nc1nc(NC(=O)c2ccc3ccccc3c2)nc2ccc3[nH]ccc3c12 [Compound 7f]
- GI50 (MDA-MB-231): 1.6 µM
- GI50 (MDA-MB-468): 0.44 µM
- melting point: 234 to 236 °C
- competition of probe 10 pulldown of LMNA/C (LMNA/C): competed
- concentration up to which human DHFR is not inhibited (human DHFR): ≥ 10 µM
- concentration up to which not toxic to normal HMEC ([1]; 72-h incubation): ≥ 5000 nM
- concentration up to which CREB-mediated gene transcription is not inhibited [2]: ≥ 10 µM
- competition of probe 10 pulldown of LMNB1 (LMNB1): competed

Compound: CC(=O)Nc1nc(N)nc2ccc3[nH]ccc3c12 [Compound 4a]
- GI50 (MDA-MB-231): 32.6 ± 14 µM
- GI50 (MDA-MB-468): 56.5 ± 18 µM
- melting point: 236 to 238 °C

Compound: CC(C)(C)[Si](C)(C)OCCCCC(=O)Nc1nc(N)c2c(ccc3[nH]ccc32)n1 [Compound 7e]
- GI50 (MDA-MB-231): 2.43 ± 0.13 µM
- GI50 (MDA-MB-468): 2.24 ± 0.4 µM
- melting point: 140 to 142 °C
- stability in 0.1% TFA [3]: instability

Compound: CC(C)C(=O)Nc1nc(N)nc2ccc3[nH]ccc3c12 [Compound 4d]
- GI50 (MDA-MB-231): > 100 µM
- GI50 (MDA-MB-468): > 100 µM

Compound: CCC(=O)Nc1nc(N)c2c(ccc3[nH]ccc32)n1 [Compound 7b]
- GI50 (MDA-MB-231): 21.4 ± 9.86 µM
- GI50 (MDA-MB-468): 24.4 ± 3.33 µM
- melting point: 228 to 230 °C

Compound: CCCC(=O)n1ccc2c3c(N)nc(N)nc3ccc21 [Compound 2c]
- melting point: 196 to 198 °C
- solubility (13C NMR sample) (Solubility observations): so limited

Compound: CCCC(=O)Nc1nc(N)c2c(ccc3[nH]ccc32)n1 [Compound 7c]
- GI50 (MDA-MB-231): 25.5 ± 9.93 µM
- GI50 (MDA-MB-468): 27.4 ± 4.52 µM
- melting point: 262 to 264 °C

Compound: CCCCOc1cc2ccccc2cc1C(=O)Nc1nc(N)c2c(ccc3[nH]ccc32)n1 [Compound 7g, N-(1-Amino-7H-pyrrolo[3,2-f]quinazolin-3-yl)-3-butoxy-2-naphthamide]
- GI50 (MDA-MB-231): 0.65 ± 0.43 µM
- GI50 (MDA-MB-468): 0.1 ± 0.079 µM

Compound: CCC(=O)n1ccc2c3c(N)nc(N)nc3ccc21 [Compound 2b]
- melting point: 210 to 212 °C
- solubility (13C NMR sample) (Solubility observations): so limited

Compound: CC(C)C(=O)n1ccc2c3c(N)nc(N)nc3ccc21 [Compound 2d]
- melting point: 200 to 202 °C

Compound: CC(=O)Nc1nc(N)c2c(ccc3[nH]ccc32)n1 [Compound 7a]
- GI50 (MDA-MB-231): 27.2 ± 11.4 µM
- GI50 (MDA-MB-468): 53.5 ± 29.5 µM
- melting point: 260 to 262 °C

Compound: Nc1nc(N)c2c(ccc3c2ccn3C(=O)c2ccc3ccccc3c2)n1 [Compound 2f]
- melting point: 188 to 190 °C

Compound: CCC(=O)Nc1nc(N)nc2ccc3[nH]ccc3c12 [Compound 4b]
- GI50 (MDA-MB-231): 18.7 ± 2.24 µM
- GI50 (MDA-MB-468): 20.3 ± 7.4 µM
- melting point: 226 to 228 °C

Compound: CC(C)(C)[Si](C)(C)OCCCCC(=O)Nc1nc(N)nc2ccc3[nH]ccc3c12 [Compound 4e]
- GI50 (MDA-MB-231): 15.6 ± 7.66 µM
- GI50 (MDA-MB-468): 11.1 ± 1.73 µM
- melting point: 172 to 174 °C
- stability in 0.1% TFA [3]: instability

Compound: CC(C)C(=O)Nc1nc(N)c2c(ccc3[nH]ccc32)n1 [Compound 7d]
- GI50 (MDA-MB-231): 39.7 ± 22.5 µM
- GI50 (MDA-MB-468): 29.8 ± 8.41 µM
- melting point: 288 to 290 °C

Compound: Nc1nc(N)c2c(ccc3[nH]ccc32)n1 [Compound 1, 7H-Pyrrolo[3,2-f]quinazoline-1,3-diamine, reference compound]
- GI50 (MDA-MB-231): 4.13 ± 0.54 µM
- GI50 (MDA-MB-468): 3.34 ± 0.93 µM

Compound: CC(=O)n1ccc2c3c(N)nc(N)nc3ccc21 [Compound 2a]
- melting point: 202 to 204 °C
- solubility (13C NMR sample) (Solubility observations): so limited

Compound: COc1cccc2c1C(=O)c1c(O)c3c(c(O)c1C2=O)C[C@@](O)(C(=O)CO)C[C@@H]3O[C@H]1C[C@H](N)[C@H](O)[C@H](C)O1 [Dox, doxorubicin, reference compound]
- GI50 (MDA-MB-468): 0.12 µM
- concentration toxic to normal HMEC cells ([1]; toxic at a concentration as low as): ≤ 100 nM

Compound: CC(C)(C)[Si](C)(C)OCCCCC(=O)n1ccc2c3c(N)nc(N)nc3ccc21 [Compound 2e]
- melting point: 173 to 175 °C
- stability in 0.1% TFA [3]: instability

Compound: Nc1nc(NC(=O)c2ccc3ccccc3c2)c2c(ccc3[nH]ccc32)n1 [Compound 4f]
- GI50 (MDA-MB-231): 8.46 ± 2.56 µM
- GI50 (MDA-MB-468): 8.91 ± 1.28 µM
